Results: ChEMBL document CHEMBL1201862, “PubChem BioAssay data set” (2004)
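1) Cells in 96-well plates. 2) Compound, 48 h, 5 concentrations. 3) Linear interpolation between surrounding doses. 4) Unreached endpoint = highest concentration. GI50: concentration for 50% inhibition of growth.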 Calls of active or inactive are those of the source. Rule as the data show it: active = GI50 up to about 1.1 µM and inactive = higher.

Key:
Assay in all cases: NCI anticancer screen, dose series, 48 h
786-0 = system: 786-0
A498 = system: A498
A549 = system: A549
ACHN = system: ACHN
BT-549 = system: BT-549
CAKI-1 = system: CAKI-1
CCRF-CEM = system: CCRF-CEM
COLO 205 = system: COLO 205
DU-145 = system: DU-145
EKVX = system: EKVX
HCC 2998 = system: HCC 2998
HCT-116 = system: HCT-116
HCT-15 = system: HCT-15
HL-60 = system: HL-60
HOP-62 = system: HOP-62
HT-29 = system: HT-29
Hs-578T = system: Hs-578T
IGROV-1 = system: IGROV-1
K562 = system: K562
LOX IMVI = system: LOX IMVI
M14 = system: M14
MCF7 = system: MCF7
MDA-MB-231 = system: MDA-MB-231
MDA-MB-435 = system: MDA-MB-435
MDA-N = system: MDA-N
MOLT-4 = system: MOLT-4
Malme-3M = system: Malme-3M
NCI-H226 = system: NCI-H226
NCI-H23 = system: NCI-H23
NCI-H460 = system: NCI-H460
NCI-H522 = system: NCI-H522
NCI/ADR-RES = system: NCI/ADR-RES
OVCAR-3 = system: OVCAR-3
OVCAR-4 = system: OVCAR-4
OVCAR-5 = system: OVCAR-5
OVCAR-8 = system: OVCAR-8
PC-3 = system: PC-3
RPMI-8226 = system: RPMI-8226
RXF 393 = system: RXF 393
SF-268 = system: SF-268
SF-295 = system: SF-295
SF-539 = system: SF-539
SK-MEL-28 = system: SK-MEL-28
SK-MEL-2 = system: SK-MEL-2
SK-MEL-5 = system: SK-MEL-5
SK-OV-3 = system: SK-OV-3
SN12C = system: SN12C
SNB-19 = system: SNB-19
SNB-75 = system: SNB-75
SR = system: SR
SW-620 = system: SW-620
T47D = system: T47D
TK-10 = system: TK-10
U-251 = system: U-251
UACC-257 = system: UACC-257
UACC-62 = system: UACC-62
KM12 = system: KM12
UO-31 = system: UO-31

Cc1ccc2c(=O)[nH]sc2c1
GI50 (786-0): 3.72 µM (inactive) | GI50 (A498): 64.1 µM (inactive) | GI50 (A549): 19 µM (inactive) | GI50 (ACHN): 9.29 µM (inactive) | GI50 (BT-549): 15.4 µM (inactive) | GI50 (CAKI-1): 5.4 µM (inactive) | GI50 (CCRF-CEM): 3.26 µM (inactive) | GI50 (COLO 205): 3.82 µM (inactive) | GI50 (DU-145): 88.1 µM (inactive) | GI50 (EKVX): 14.9 µM (inactive) | GI50 (HCC 2998): 21.2 µM (inactive) | GI50 (HCT-116): 31.9 µM (inactive) | GI50 (HCT-15): 14.6 µM | GI50 (HL-60): 13.1 µM (inactive) | GI50 (HOP-62): 19.5 µM (inactive) | GI50 (HT-29): 16.7 µM (inactive) | GI50 (Hs-578T): 21.5 µM (inactive) | GI50 (IGROV-1): 19.7 µM (inactive) | GI50 (K562): 5.58 µM (inactive) | GI50 (LOX IMVI): 16.1 µM (inactive) | GI50 (M14): 11.7 µM (inactive) | GI50 (MCF7): 17.1 µM (inactive) | GI50 (MDA-MB-231): 17.3 µM (inactive) | GI50 (MDA-MB-435): 14.5 µM (inactive) | GI50 (MDA-N): 14 µM (inactive) | GI50 (MOLT-4): 3.98 µM (inactive) | GI50 (Malme-3M): 20.4 µM (inactive) | GI50 (NCI-H226): 19.7 µM (inactive) | GI50 (NCI-H23): 17.7 µM (inactive) | GI50 (NCI-H460): 53.3 µM (inactive) | GI50 (NCI-H522): 2.38 µM (inactive) | GI50 (NCI/ADR-RES): 21.6 µM (inactive) | GI50 (OVCAR-3): 17.8 µM (inactive) | GI50 (OVCAR-4): 27.9 µM (inactive) | GI50 (OVCAR-5): 94 µM (inactive) | GI50 (OVCAR-8): 17.3 µM (inactive) | GI50 (PC-3): 15.7 µM (inactive) | GI50 (RPMI-8226): 5.31 µM (inactive) | GI50 (RXF 393): 15.3 µM (inactive) | GI50 (SF-268): 19.9 µM (inactive) | GI50 (SF-295): 54.5 µM (inactive) | GI50 (SF-539): 12.6 µM (inactive) | GI50 (SK-MEL-28): 17.9 µM (inactive) | GI50 (SK-MEL-2): 37.7 µM (inactive) | GI50 (SK-MEL-5): 12.9 µM (inactive) | GI50 (SK-OV-3): > 100 µM (inactive) | GI50 (SN12C): 7.83 µM (inactive) | GI50 (SNB-19): 39.4 µM (inactive) | GI50 (SNB-75): 71.6 µM (inactive) | GI50 (SR): 3.69 µM (inactive) | GI50 (SW-620): 12.6 µM (inactive) | GI50 (T47D): 14.8 µM (inactive) | GI50 (TK-10): 18.4 µM (inactive) | GI50 (U-251): 14.8 µM (inactive) | GI50 (UACC-257): 18.4 µM (inactive) | GI50 (UACC-62): 17.1 µM (inactive)

Cc1cc(N(CCC#N)CCC#N)ccc1C(/N=N/c1ccc(Cl)cc1)=N\NC(=O)c1cc(Cl)ccc1O
GI50 (786-0): 30.6 µM (inactive) | GI50 (A498): 29.1 µM (inactive) | GI50 (A549): 31.3 µM (inactive) | GI50 (ACHN): 32.4 µM (inactive) | GI50 (BT-549): 36.7 µM (inactive) | GI50 (CAKI-1): > 100 µM (inactive) | GI50 (CCRF-CEM): 37 µM (inactive) | GI50 (COLO 205): 47.9 µM (inactive) | GI50 (DU-145): > 100 µM (inactive) | GI50 (EKVX): 36.4 µM (inactive) | GI50 (HCC 2998): 29.9 µM (inactive) | GI50 (HCT-116): 71.4 µM (inactive) | GI50 (HCT-15): 39.4 µM | GI50 (HOP-62): 20.5 µM (inactive) | GI50 (HT-29): 45.9 µM (inactive) | GI50 (Hs-578T): 19.5 µM (inactive) | GI50 (IGROV-1): 30.6 µM (inactive) | GI50 (K562): 76.2 µM (inactive) | GI50 (KM12): 58.9 µM (inactive) | GI50 (M14): > 100 µM (inactive) | GI50 (MCF7): 29.4 µM (inactive) | GI50 (MDA-MB-231): 30.8 µM (inactive) | GI50 (MDA-MB-435): > 100 µM (inactive) | GI50 (MDA-N): > 100 µM (inactive) | GI50 (MOLT-4): 53.5 µM (inactive) | GI50 (Malme-3M): 62.7 µM (inactive) | GI50 (NCI-H226): 28.7 µM (inactive) | GI50 (NCI-H23): 40.2 µM (inactive) | GI50 (NCI-H460): 27.9 µM (inactive) | GI50 (NCI-H522): 16.7 µM (inactive) | GI50 (NCI/ADR-RES): 52.8 µM (inactive) | GI50 (OVCAR-3): 19.1 µM (inactive) | GI50 (OVCAR-4): 27.1 µM (inactive) | GI50 (OVCAR-5): > 100 µM (inactive) | GI50 (OVCAR-8): 35.6 µM (inactive) | GI50 (PC-3): 35.2 µM (inactive) | GI50 (RPMI-8226): > 100 µM (inactive) | GI50 (RXF 393): 22.2 µM (inactive) | GI50 (SF-268): 27.7 µM (inactive) | GI50 (SF-295): 22.8 µM (inactive) | GI50 (SF-539): 25 µM (inactive) | GI50 (SK-MEL-2): 67 µM (inactive) | GI50 (SK-MEL-5): > 100 µM (inactive) | GI50 (SK-OV-3): 34.8 µM (inactive) | GI50 (SN12C): 70.5 µM (inactive) | GI50 (SNB-19): 25.1 µM (inactive) | GI50 (SNB-75): 30.1 µM (inactive) | GI50 (SR): 38.7 µM (inactive) | GI50 (T47D): 31.6 µM (inactive) | GI50 (TK-10): 30 µM (inactive) | GI50 (U-251): 37.1 µM (inactive) | GI50 (UACC-257): 72.8 µM (inactive) | GI50 (UACC-62): 43.3 µM (inactive) | GI50 (UO-31): 64.4 µM (inactive)
